This is an account of results in patent US20110301137A1 (APEX LABORATORIES PRIVATE LIMITED, priority 2009, published 2011).

Read-outs that look alike come from different tables or passages of the source.

The data set is classed as physicochemical. Particulars: for degradation of the API: 3 months; for Initial (%): at time of receipt of the API from the supplier.

As to `CC(=O)O[C@H]1C[C@@]2(C)[C@@H](C[C@@H](O)[C@H]3[C@@]4(C)CC[C@@H](O)[C@@H](C)[C@@H]4CC[C@@]32C)/C1=C(\CCC=C(C)C)C(=O)O` [Fusidic Acid, Fusidic acid], the “degradation of the API” value was 7.7-11%. In addition, the “Initial (%)” value (Fusidic Acid BP) amounted to 100.6%.

Regarding `CC(=O)O[C@H]1C[C@@]2(C)[C@@H](C[C@@H](O)[C@H]3[C@@]4(C)CC[C@@H](O)[C@@H](C)[C@@H]4CC[C@@]32C)/C1=C(\CCC=C(C)C)C(=O)O` [Sodium Fusidate], the “degradation of the API” value is recorded as 2.45-6%. In addition, the “Initial (%)” value (Sodium Fusidate BP) was found to be 98.7%.
